Patent US8883826B2, “Alkynyl derivatives as modulators of metabotropic glutamate receptors” (Addex Pharma SA, priority 2004, dated 2014)

What follows are molecules tested against T1, mGluR5 (Rattus norvegicus, UniProt P31424) (assay: mGluR5 binding assay ([3H]-MPEP radioligand competition)). Conditions: competition with 3 nM [3H]-MPEP, rat brain cortical membranes, 1 h at 4 °C; mean of at least three independent experiments in duplicate.
T1 construct: tissue Charles River Laboratories; host or cells: rat brain cortex membranes (Sprague-Dawley)
T1 sequence (P31424 21-1203): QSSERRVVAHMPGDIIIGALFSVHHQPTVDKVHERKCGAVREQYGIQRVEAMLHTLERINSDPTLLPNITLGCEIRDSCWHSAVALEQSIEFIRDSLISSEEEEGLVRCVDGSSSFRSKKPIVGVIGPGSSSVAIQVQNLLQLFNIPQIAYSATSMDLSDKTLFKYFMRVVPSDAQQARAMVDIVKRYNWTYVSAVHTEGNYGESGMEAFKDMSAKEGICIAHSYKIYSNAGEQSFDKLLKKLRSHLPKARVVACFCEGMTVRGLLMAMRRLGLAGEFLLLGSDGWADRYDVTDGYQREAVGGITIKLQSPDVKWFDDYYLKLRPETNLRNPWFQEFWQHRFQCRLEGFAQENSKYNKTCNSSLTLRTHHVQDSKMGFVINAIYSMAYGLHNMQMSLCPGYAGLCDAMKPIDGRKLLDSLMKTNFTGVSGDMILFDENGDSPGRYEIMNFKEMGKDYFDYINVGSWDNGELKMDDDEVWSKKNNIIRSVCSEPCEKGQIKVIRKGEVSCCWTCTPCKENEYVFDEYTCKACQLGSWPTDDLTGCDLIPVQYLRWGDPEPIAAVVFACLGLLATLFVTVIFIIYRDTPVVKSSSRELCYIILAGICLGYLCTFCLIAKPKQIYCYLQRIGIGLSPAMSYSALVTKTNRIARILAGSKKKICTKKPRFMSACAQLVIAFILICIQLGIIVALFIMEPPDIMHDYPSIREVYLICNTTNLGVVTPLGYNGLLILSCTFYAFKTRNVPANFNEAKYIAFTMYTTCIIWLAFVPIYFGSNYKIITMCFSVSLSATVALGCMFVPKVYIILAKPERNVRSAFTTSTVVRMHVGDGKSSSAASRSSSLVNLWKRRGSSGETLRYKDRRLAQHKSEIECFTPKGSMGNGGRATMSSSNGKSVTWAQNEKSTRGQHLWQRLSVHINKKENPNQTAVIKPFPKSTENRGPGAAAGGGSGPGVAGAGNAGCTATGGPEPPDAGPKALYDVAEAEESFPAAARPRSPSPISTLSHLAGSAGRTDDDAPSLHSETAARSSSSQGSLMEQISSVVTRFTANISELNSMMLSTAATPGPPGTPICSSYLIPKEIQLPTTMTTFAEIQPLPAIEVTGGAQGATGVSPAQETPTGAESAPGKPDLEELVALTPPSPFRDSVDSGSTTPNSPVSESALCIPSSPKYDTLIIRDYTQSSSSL
From the text: Activity of compounds of the invention was examined following a radioligand binding technique using whole rat brain and tritiated 2-methyl-6-(phenylethynyl)-pyridine ([^3H]-MPEP) as a ligand following similar methods than those described in F. Gasparini et al. Bioorg. Med. Chem. Lett. 2002, 12, 407-409 and in J. F. Anderson et al. J. Pharmacol. Exp. Ther. 2002, 303, 3, 1044-1051.
Cortices were dissected out from brains of 200-300 g Sprague-Dawley rats (Charles River Laboratories, L'Arbresle, France). Tissues were homogenized in 10 volumes (vol/wt) of ice-cold 50 mM Hepes-NaOH (pH 7.4) using a Polytron disrupter (Kinematica AG, Luzern, Switzerland) and centrifuged for 30 min at 40,000 g. (4° C.). The supernatant was discarded and the pellet washed twice by resuspension in 10 volumes 50 mM HEPES-NaOH. Membranes were then collected by centrifugation and washed before final resuspension in 10 volumes of 20 mM HEPES-NaOH, pH 7.4. Protein concentration was determined by the Bradford method (Bio-Rad protein assay, Reinach, Switzerland) with bovine serum albumin as standard.
[^3H]-MPEP Binding Experiments:
Membranes were thawed and resuspended in binding buffer containing 20 mM HEPES-NaOH, 3 mM MgCl2, 3 mM CaCl2, 100 mM NaCl, pH 7.4. Competition studies were carried out by incubating for 1 h at 4° C.: 3 nM [^3H]-MPEP (39 Ci/mmol, Tocris, Cookson Ltd, Bristol, U.K.), 50 μg membrane and a concentration range of 0.003 nM-30 μM of compounds, for a total reaction volume of 300 μl. The non-specific binding was defined using 30 μM MPEP. Reaction was terminated by rapid filtration over glass-fiber filter plates (Unifilter 96-well GF/B filter plates, Perkin-Elmer, Schwerzenbach, Switzerland) using 4×400 μl ice cold buffer using cell harvester (Filtermate, Perkin-Elmer, Downers Grove, USA). Radioactivity was determined by liquid scintillation spectrometry using a 96-well plate reader (TopCount, Perkin-Elmer, Downers Grove, USA).
The inhibition curves were generated using the Prism GraphPad program (Graph Pad Software Inc, San Diego, USA). IC50 determinations were made from data obtained from 8 point-concentration response curves using a non linear regression analysis.
The table below represents the mean of IC50 obtained from at least three independent experiments of selected molecules performed in duplicate.
For “2-(4-(3-Methyl-4-phenyl-1H-pyrazol-1-yl)but-1-ynyl)pyridine and 2-(4-(5-methyl-4-phenyl-1H-pyrazol-1-yl)but-1-ynyl)pyridine [Example 174]”, the IC50 was less than 10 µM. Work on `Cc1nc(C#CCCc2ccccc2)cs1` [Example 1, 2-Methyl-(4-(4-phenyl)but-1-ynyl)thiazole] yielded an IC50 of less than 0.5 µM. Molecule `CCc1ccccc1-c1noc(CCC#Cc2ccccn2)n1` [Example 2, 2-(4-(3-(2-Ethylphenyl)-1,2,4-oxadiazol-5-yl)but-1-ynyl)pyridine] has an IC50 of less than 10 µM. Molecule `O=C1c2ccccc2C(=O)N1CCC#Cc1ccccn1` [Example 3, 2-(4-(Pyridin-2-yl)but-3-ynyl)isoindoline-1,3-dione] has an IC50 of less than 10 µM. For `O=c1c2ccccc2cnn1CCC#Cc1ccccn1` [Example 4, 2-(4-(Pyridin-2-yl)but-3-ynyl)phthalazin-1(2H)-one], the IC50 was less than 10 µM. In the case of `C(#Cc1ccc2ccccc2n1)CCc1ccccc1` [Example 5, 2-(4-Phenylbut-1-ynyl)quinoline], the IC50 is reported as less than 10 µM. Work on `C(#Cc1nc2ccccc2o1)CCc1ccccc1` [Example 7, 2-(4-Phenylbut-1-ynyl)benzo[d]oxazole] yielded an IC50 of less than 0.5 µM. For `Fc1ccc(-c2noc(CCC#Cc3ccccn3)n2)cc1` [Example 9, 2-(4-(3-(4-Fluorophenyl)-1,2,4-oxadiazol-5-yl)but-1-ynyl)pyridine], the IC50 was less than 10 µM. `C(#Cc1ccccn1)CCc1nc(-c2ccccc2)no1` [Example 10] showed an IC50 of less than 10 µM. Molecule `CN(C(=O)CCC#Cc1ccccn1)c1ccc(F)cc1` [Example 13, N-(4-Fluorophenyl)-N-methyl-5-(pyridin-2-yl)pent-4-ynamide] has an IC50 of less than 0.5 µM. With `C(#Cc1ccccn1)CCc1csc(-c2ccccc2)n1` [Example 14, 2-(4-(2-Phenylthiazol-4-yl)but-1-ynyl)pyridine] the IC50 was less than 10 µM. `Cc1ccccc1-c1noc(CCC#Cc2ccccn2)n1` [Example 15] was tested, and the IC50 was less than 0.5 µM. With `C(#Cc1ccccn1)CCc1nc(Cc2ccccc2)no1` [Example 16, 2-(4-(3-Benzyl-1,2,4-oxadiazol-5-yl)but-1-ynyl)pyridine] the IC50 was less than 10 µM. `Fc1ccccc1Cc1noc(CCC#Cc2ccccn2)n1` [Example 17, 2-(4-(3-(2-Fluorobenzyl)-1,2,4-oxadiazol-5-yl)but-1-ynyl)pyridine] gave an IC50 of less than 10 µM. Molecule `Cc1ccccc1Cc1noc(CCC#Cc2ccccn2)n1` [Example 18, 2-(4-(3-(2-Methylbenzyl)-1,2,4-oxadiazol-5-yl)but-1-ynyl)pyridine] has an IC50 of less than 10 µM. `Fc1ccc(Cc2noc(CCC#Cc3ccccn3)n2)cc1` [Example 19, 2-(4-(3-(4-Fluorobenzyl)-1,2,4-oxadiazol-5-yl)but-1-ynyl)pyridine] was tested, and the IC50 was less than 10 µM. Work on `COc1ccc(Cc2noc(CCC#Cc3ccccn3)n2)cc1` [Example 20, 2-(4-(3-(4-Methoxybenzyl)-1,2,4-oxadiazol-5-yl)but-1-ynyl)pyridine] yielded an IC50 of less than 10 µM. `CC(C)c1noc(CCC#Cc2ccccn2)n1` [Example 21, 2-(4-(3-Isopropyl-1,2,4-oxadiazol-5-yl)but-1-ynyl)pyridine] gave an IC50 of less than 10 µM. `CCCCc1noc(CCC#Cc2ccccn2)n1` [Example 22, 2-(4-(3-Butyl-1,2,4-oxadiazol-5-yl)but-1-ynyl)pyridine] was tested, and the IC50 was less than 10 µM. For `Fc1cccc(Cc2noc(CCC#Cc3ccccn3)n2)c1` [Example 23, 2-(4-(3-(3-Fluorobenzyl)-1,2,4-oxadiazol-5-yl)but-1-ynyl)pyridine], the IC50 was less than 10 µM. For `COc1cccc(Cc2noc(CCC#Cc3ccccn3)n2)c1` [Example 24, 2-(4-(3-(3-Methoxybenzyl)-1,2,4-oxadiazol-5-yl)but-1-ynyl)pyridine], the IC50 was less than 10 µM. `Fc1ccccc1-c1noc(CCC#Cc2ccccn2)n1` [Example 25, 2-(4-(3-(2-Fluorophenyl)-1,2,4-oxadiazol-5-yl)but-1-ynyl)pyridine] gave an IC50 of less than 0.5 µM. For `Fc1cccc(-c2noc(CCC#Cc3ccccn3)n2)c1` [Example 26, 2-(4-(3-(3-Fluorophenyl)-1,2,4-oxadiazol-5-yl)but-1-ynyl)pyridine], the IC50 was less than 10 µM. Molecule `Cc1ccc2oc(CCC#Cc3ccccn3)nc2c1` [Example 28, 5-Methyl-(2-(4-pyridin-2-yl)but-3-ynyl)benzo[d]oxazole] has an IC50 of less than 10 µM. `Cc1ccc2nc(CCC#Cc3ccccn3)oc2c1` [Example 29, 6-Methyl-(2-(4-pyridin-2-yl)but-3-ynyl)benzo[d]oxazole] was tested, and the IC50 was less than 10 µM. `Cc1cccc2oc(CCC#Cc3ccccn3)nc12` [Example 30, 4-Methyl-(2-(4-pyridin-2-yl)but-3-ynyl)benzo[d]oxazole] was tested, and the IC50 was less than 10 µM. `Cc1nc(C#CCCc2nc3ccccc3o2)cs1` [Example 31, 2-(4-(2-Methylthiazol-4-yl)but-3-ynyl)benzo[d]oxazole] gave an IC50 of less than 0.05 µM. With `C(#Cc1ccccn1)CCc1cn2ccccc2n1` [Example 33, 2-(4-(Pyridin-2-yl)but-3-ynyl)-imidazo[1,2-a]pyridine] the IC50 was less than 0.05 µM. Work on `COc1ccccc1-c1noc(CCC#Cc2ccccn2)n1` [Example 40, 2-(4-(3-(2-Methoxyphenyl)-1,2,4-oxadiazol-5-yl)but-1-ynyl)pyridine] yielded an IC50 of less than 10 µM. Molecule `COc1cccc(-c2noc(CCC#Cc3ccccn3)n2)c1` [Example 41, 2-(4-(3-(3-Methoxyphenyl)-1,2,4-oxadiazol-5-yl)but-1-ynyl)pyridine] has an IC50 of less than 10 µM. `COc1ccc(-c2noc(CCC#Cc3ccccn3)n2)cc1` [Example 42, 2-(4-(3-(4-Methoxyphenyl)-1,2,4-oxadiazol-5-yl)but-1-ynyl)pyridine] was tested, and the IC50 was less than 10 µM. `Cc1cccc(-c2noc(CCC#Cc3ccccn3)n2)c1` [Example 43, 2-(4-(3-m-Tolyl-1,2,4-oxadiazol-5-yl)but-1-ynyl)pyridine] gave an IC50 of less than 10 µM. In the case of `Cc1ccc(-c2noc(CCC#Cc3ccccn3)n2)cc1` [Example 44, 2-(4-(3-p-Tolyl-1,2,4-oxadiazol-5-yl)but-1-ynyl)pyridine], the IC50 is reported as less than 10 µM. In the case of `Clc1ccccc1-c1noc(CCC#Cc2ccccn2)n1` [Example 45, 2-(4-(3-(2-Chlorophenyl)-1,2,4-oxadiazol-5-yl)but-1-ynyl)pyridine], the IC50 is reported as less than 10 µM. `Clc1cccc(-c2noc(CCC#Cc3ccccn3)n2)c1` [Example 46, 2-(4-(3-(3-Chlorophenyl)-1,2,4-oxadiazol-5-yl)but-1-ynyl)pyridine] showed an IC50 of less than 10 µM. For `Cc1cccc(C)c1-c1noc(CCC#Cc2ccccn2)n1` [Example 48, 2-(4-(3-(2,6-Dimethylphenyl)-1,2,4-oxadiazol-5-yl)but-1-ynyl)pyridine], the IC50 was less than 0.5 µM. Molecule `FC(F)(F)c1ccccc1-c1noc(CCC#Cc2ccccn2)n1` [Example 49] has an IC50 of less than 10 µM. `C(#Cc1ccccn1)CCc1nc(-c2cccc3ccccc23)no1` [Example 50, 2-(4-(3-(Naphthalen-1-yl)-1,2,4-oxadiazol-5-yl)but-1-ynyl)pyridine] gave an IC50 of less than 10 µM. `Cc1cccc(-c2noc(CCC#Cc3ccccn3)n2)c1C` [Example 52, 2-(4-(3-(2,3-Dimethylphenyl)-1,2,4-oxadiazol-5-yl)but-1-ynyl)pyridine] showed an IC50 of less than 10 µM. For `Clc1ccc(Cl)c(-c2noc(CCC#Cc3ccccn3)n2)c1` [Example 53, 2-(4-(3-(2,5-Dichlorophenyl)-1,2,4-oxadiazol-5-yl)but-1-ynyl)pyridine], the IC50 was less than 10 µM. Molecule `Cc1ccc(C)c(-c2noc(CCC#Cc3ccccn3)n2)c1` [Example 54, 2-(4-(3-(2,5-Dimethylphenyl)-1,2,4-oxadiazol-5-yl)but-1-ynyl)pyridine] has an IC50 of less than 10 µM. For `Clc1cccc(Cl)c1-c1noc(CCC#Cc2ccccn2)n1` [Example 55, 2-(4-(3-(2,6-Dichlorophenyl)-1,2,4-oxadiazol-5-yl)but-1-ynyl)pyridine], the IC50 was less than 10 µM. For `Clc1cccc(-c2noc(CCC#Cc3ccccn3)n2)c1Cl` [Example 56, 2-(4-(3-(2,3-Dichlorophenyl)-1,2,4-oxadiazol-5-yl)but-1-ynyl)pyridine], the IC50 was less than 10 µM. `Cc1cccc(Cl)c1-c1noc(CCC#Cc2ccccn2)n1` [Example 58, 2-(4-(3-(2-Chloro-6-methylphenyl)-1,2,4-oxadiazol-5-yl)but-1-ynyl)pyridine] gave an IC50 of less than 10 µM. In the case of `FC(F)(F)Oc1ccccc1-c1noc(CCC#Cc2ccccn2)n1` [Example 61, 2-(4-(3-(2-(Trifluoromethoxy)phenyl)-1,2,4-oxadiazol-5-yl)but-1-ynyl)pyridine], the IC50 is reported as less than 10 µM. With `Fc1ccc2nc(CCC#Cc3ccccn3)oc2c1` [Example 62, 6-Fluoro-2-(4-(pyridin-2-yl)but-3-ynyl)benzo[d]oxazole] the IC50 was less than 0.05 µM. `Clc1cccc2nc(CCC#Cc3ccccn3)oc12` [Example 63, 7-Chloro-2-(4-(pyridin-2-yl)but-3-ynyl)benzo[d]oxazole] gave an IC50 of less than 0.05 µM.
